From the Kinase Knowledgebase extract (Sharma et al. 2016)

Tests used:
MAPK14 (human) = MAPK14 (human) (UniProt Q16539); assay: Enzyme Assay; conditions: for activity: 10.0 µM
CDK2 (human) = CDK2 (human) (UniProt P24941); assay: Enzyme Assay; conditions: for activity: 10.0 µM
EGFR (human) = EGFR (human) (UniProt P00533); conditions: for activity: 10.0 µM
[1] = system: EGFR (human), P00533 [G719C]; conditions: 10.0 µM
PIK3CA (human) = PIK3CA (human) (UniProt P42336); assay: Enzyme Assay; conditions: 10.0 µM
PIK3CA (human), sequence (P42336 whole entry, looked up): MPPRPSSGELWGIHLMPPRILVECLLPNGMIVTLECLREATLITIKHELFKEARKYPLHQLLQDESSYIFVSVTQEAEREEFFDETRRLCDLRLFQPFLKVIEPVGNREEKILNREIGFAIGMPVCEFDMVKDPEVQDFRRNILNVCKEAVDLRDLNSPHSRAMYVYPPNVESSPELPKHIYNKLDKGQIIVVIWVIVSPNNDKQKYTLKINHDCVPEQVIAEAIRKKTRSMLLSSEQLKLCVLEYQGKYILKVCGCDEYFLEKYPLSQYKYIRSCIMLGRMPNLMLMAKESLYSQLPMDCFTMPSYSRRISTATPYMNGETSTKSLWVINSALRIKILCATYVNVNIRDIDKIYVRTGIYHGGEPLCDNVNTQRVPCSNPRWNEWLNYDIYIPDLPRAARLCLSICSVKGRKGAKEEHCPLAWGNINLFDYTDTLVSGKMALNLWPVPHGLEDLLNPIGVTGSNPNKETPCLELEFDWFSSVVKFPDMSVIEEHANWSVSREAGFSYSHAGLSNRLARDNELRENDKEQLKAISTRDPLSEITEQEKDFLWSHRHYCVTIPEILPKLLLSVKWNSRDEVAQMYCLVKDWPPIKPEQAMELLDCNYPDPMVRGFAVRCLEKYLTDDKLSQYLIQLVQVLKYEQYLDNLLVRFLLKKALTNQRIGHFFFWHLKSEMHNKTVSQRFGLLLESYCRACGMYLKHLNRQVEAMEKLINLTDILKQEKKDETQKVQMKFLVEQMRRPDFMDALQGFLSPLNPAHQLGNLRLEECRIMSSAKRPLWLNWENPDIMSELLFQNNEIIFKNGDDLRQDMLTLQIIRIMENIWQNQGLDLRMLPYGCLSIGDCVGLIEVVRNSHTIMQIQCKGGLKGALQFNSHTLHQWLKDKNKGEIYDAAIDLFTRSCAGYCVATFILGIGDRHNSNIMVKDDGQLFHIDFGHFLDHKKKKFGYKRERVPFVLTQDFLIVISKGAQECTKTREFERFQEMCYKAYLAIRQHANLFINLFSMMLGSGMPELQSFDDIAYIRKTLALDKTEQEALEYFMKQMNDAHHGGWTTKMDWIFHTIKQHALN

[2] = system: PIK3CA (human), P42336 [E542K]; assay: Enzyme Assay; conditions: 10.0 µM
PIK3CA (human), P42336 [E542K], sequence (P42336 whole entry E542K, looked up): as the sequence (P42336 whole entry, looked up) above, with E542K counted along it

[3] = system: PIK3CA (human), P42336 [Q546K]; assay: Enzyme Assay; conditions: 10.0 µM
PIK3CA (human), P42336 [Q546K], sequence (P42336 whole entry Q546K, looked up): as the sequence (P42336 whole entry, looked up) above, with Q546K counted along it

[4] = system: PIK3CA (human), P42336 [C420R]; assay: Enzyme Assay; conditions: 10.0 µM
PIK3CA (human), P42336 [C420R], sequence (P42336 whole entry C420R, looked up): as the sequence (P42336 whole entry, looked up) above, with C420R counted along it

[5] = system: PIK3CA (human), P42336 [H1047Y]; assay: Enzyme Assay; conditions: 10.0 µM
PIK3CA (human), P42336 [H1047Y], sequence (P42336 whole entry H1047Y, looked up): as the sequence (P42336 whole entry, looked up) above, with H1047Y counted along it

[6] = system: PIK3CA (human), P42336 [M1043I]; assay: Enzyme Assay; conditions: 10.0 µM
PIK3CA (human), P42336 [M1043I], sequence (P42336 whole entry M1043I, looked up): as the sequence (P42336 whole entry, looked up) above, with M1043I counted along it

PIK3CB (Human) = PIK3CB (Human) (UniProt P42338); assay: Enzyme Assay; conditions: 10.0 µM
[7] = system: PIK3CA (human), P42336 [E545A]; assay: Enzyme Assay; conditions: 10.0 µM
PIK3CA (human), P42336 [E545A], sequence (P42336 whole entry E545A, looked up): as the sequence (P42336 whole entry, looked up) above, with E545A counted along it

ROCK2 (human) = ROCK2 (human) (UniProt O75116); assay: Enzyme Assay; conditions: 10.0 µM
ROCK2 (human), sequence (O75116 whole entry, looked up): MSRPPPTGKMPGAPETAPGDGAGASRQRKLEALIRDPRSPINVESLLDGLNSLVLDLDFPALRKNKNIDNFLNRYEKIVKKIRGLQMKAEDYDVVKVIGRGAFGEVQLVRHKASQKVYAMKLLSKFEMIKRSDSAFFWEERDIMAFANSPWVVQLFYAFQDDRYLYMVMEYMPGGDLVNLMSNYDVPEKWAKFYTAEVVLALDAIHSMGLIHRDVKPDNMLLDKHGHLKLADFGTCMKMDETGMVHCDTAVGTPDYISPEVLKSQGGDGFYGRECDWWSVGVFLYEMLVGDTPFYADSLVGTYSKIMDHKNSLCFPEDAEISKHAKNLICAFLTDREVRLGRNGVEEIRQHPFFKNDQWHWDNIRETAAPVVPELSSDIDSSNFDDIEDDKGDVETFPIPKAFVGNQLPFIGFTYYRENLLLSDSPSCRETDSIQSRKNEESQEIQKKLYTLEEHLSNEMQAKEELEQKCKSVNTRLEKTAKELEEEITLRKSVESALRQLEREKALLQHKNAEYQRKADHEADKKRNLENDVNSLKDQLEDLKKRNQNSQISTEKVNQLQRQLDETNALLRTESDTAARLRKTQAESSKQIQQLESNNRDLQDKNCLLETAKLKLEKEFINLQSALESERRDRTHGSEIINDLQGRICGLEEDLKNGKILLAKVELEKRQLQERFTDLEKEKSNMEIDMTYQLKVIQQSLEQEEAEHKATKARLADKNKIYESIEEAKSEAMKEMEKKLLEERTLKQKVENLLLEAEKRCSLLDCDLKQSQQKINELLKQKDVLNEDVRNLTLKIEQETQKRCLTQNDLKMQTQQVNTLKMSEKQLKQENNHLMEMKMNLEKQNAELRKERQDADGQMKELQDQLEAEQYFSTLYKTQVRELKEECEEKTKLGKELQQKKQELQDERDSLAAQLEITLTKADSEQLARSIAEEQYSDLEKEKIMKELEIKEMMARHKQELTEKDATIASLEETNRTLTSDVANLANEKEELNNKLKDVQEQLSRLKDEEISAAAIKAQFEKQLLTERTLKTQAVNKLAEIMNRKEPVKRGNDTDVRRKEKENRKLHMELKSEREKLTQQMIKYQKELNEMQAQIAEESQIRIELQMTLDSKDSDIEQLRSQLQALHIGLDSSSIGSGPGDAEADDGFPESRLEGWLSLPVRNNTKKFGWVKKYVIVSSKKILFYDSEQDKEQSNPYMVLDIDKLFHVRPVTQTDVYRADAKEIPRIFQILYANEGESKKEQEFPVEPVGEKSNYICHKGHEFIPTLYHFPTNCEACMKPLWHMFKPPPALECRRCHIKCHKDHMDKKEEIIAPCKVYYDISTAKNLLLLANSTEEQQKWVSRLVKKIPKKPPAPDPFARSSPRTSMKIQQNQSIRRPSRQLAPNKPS

[8] = system: PIK3CA (human), P42336 [H1047L]; assay: Enzyme Assay; conditions: 10.0 µM
PIK3CA (human), P42336 [H1047L], sequence (P42336 whole entry H1047L, looked up): as the sequence (P42336 whole entry, looked up) above, with H1047L counted along it

[9] = system: PIK3CA (human), P42336 [I800L]; assay: Enzyme Assay; conditions: 10.0 µM
PIK3CA (human), P42336 [I800L], sequence (P42336 whole entry I800L, looked up): as the sequence (P42336 whole entry, looked up) above, with I800L counted along it

[10] = system: PIK3CA (human), P42336 [E545K]; assay: Enzyme Assay; conditions: 10.0 µM
PIK3CA (human), P42336 [E545K], sequence (P42336 whole entry E545K, looked up): as the sequence (P42336 whole entry, looked up) above, with E545K counted along it

PIK3CG (human) = PIK3CG (human) (UniProt P48736); assay: Enzyme Assay; conditions: 10.0 µM
PIK3CG (human), sequence (P48736 whole entry, looked up): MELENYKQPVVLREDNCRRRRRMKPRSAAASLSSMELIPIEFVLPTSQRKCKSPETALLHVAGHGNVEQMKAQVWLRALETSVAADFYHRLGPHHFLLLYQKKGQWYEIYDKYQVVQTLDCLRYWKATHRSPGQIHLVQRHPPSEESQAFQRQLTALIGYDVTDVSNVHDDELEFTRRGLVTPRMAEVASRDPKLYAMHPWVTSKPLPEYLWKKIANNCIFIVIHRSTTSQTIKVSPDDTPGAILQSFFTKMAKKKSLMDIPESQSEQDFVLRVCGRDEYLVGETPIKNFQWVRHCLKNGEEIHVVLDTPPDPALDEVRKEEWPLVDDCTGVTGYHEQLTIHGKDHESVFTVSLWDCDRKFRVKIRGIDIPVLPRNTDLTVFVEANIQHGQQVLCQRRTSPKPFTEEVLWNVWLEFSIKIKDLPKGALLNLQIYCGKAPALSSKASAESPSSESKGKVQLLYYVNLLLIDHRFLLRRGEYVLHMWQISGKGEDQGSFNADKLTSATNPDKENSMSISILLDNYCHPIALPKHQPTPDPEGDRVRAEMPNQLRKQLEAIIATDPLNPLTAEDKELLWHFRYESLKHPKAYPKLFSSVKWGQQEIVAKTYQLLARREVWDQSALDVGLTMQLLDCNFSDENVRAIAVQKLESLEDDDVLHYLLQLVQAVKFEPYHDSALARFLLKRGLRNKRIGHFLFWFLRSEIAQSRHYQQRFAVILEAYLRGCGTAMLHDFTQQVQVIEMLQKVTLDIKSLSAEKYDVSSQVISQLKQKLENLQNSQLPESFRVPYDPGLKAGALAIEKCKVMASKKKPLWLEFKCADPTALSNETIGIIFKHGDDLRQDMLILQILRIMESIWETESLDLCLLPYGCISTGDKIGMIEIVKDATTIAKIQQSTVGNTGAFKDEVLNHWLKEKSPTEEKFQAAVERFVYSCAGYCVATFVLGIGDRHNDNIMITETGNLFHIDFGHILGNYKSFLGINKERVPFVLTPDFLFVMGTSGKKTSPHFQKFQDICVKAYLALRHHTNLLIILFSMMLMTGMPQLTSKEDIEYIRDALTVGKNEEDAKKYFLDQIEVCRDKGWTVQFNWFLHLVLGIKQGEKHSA

PIK3CD (Human) = PIK3CD (Human) (UniProt O00329); assay: Enzyme Assay; conditions: 10.0 µM
[11] = system: EGFR (human), P00533 [L747-S752del, P753S]; conditions: 10.0 µM
[12] = system: EGFR (human), P00533 [S752-I759del]; conditions: 10.0 µM
[13] = system: EGFR (human), P00533 [G719S]; conditions: 10.0 µM
[14] = system: EGFR (human), P00533 [L858R]; conditions: 10.0 µM
[15] = system: EGFR (human), P00533 [T790M]; conditions: 10.0 µM
[16] = system: EGFR (human), P00533 [L747-T751del,Sins]; conditions: 10.0 µM
[17] = system: EGFR (human), P00533 [E746-A750del]; conditions: 10.0 µM
[18] = system: EGFR (human), P00533 [L747-E749del, A750P]; conditions: 10.0 µM
[19] = system: EGFR (Human), P00533 [T790M/L858R]; conditions: 10.0 µM
[20] = system: EGFR (human), P00533 [L861Q]; conditions: 10.0 µM

MAPK14 (human), sequence (Q16539 whole entry, looked up): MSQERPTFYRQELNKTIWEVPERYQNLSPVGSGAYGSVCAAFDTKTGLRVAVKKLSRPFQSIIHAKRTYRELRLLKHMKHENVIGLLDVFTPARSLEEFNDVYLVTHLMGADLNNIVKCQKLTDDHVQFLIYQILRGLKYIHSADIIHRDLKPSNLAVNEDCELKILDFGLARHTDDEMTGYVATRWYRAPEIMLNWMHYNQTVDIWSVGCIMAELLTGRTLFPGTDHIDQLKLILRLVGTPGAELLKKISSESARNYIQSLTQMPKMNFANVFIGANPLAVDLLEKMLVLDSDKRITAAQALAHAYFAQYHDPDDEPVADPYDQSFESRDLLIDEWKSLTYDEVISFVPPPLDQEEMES

IC50 (MAPK14 (human)) | IC50 (CDK2 (human)) | IC50 (EGFR (human)) | SMILES | activity [1] | activity (PIK3CA (human)) | activity (CDK2 (human)) | activity [2] | activity [3] | activity [4] | activity [5] | activity [6] | activity (PIK3CB (Human)) | activity [7] | activity (MAPK14 (human)) | activity (ROCK2 (human)) | activity [8] | activity [9] | activity [10] | activity (PIK3CG (human)) | activity (PIK3CD (Human)) | activity [11] | activity [12] | activity [13] | activity [14] | activity [15] | activity [16] | activity [17] | activity [18] | activity (EGFR (human)) | activity [19] | activity [20]
0.053 µM | – | – | Cc1csc(-c2nnc(Nc3ccc(Oc4ncccc4-c4ccnc(N)n4)cc3)c3ccccc23)c1 | – | – | – | – | – | – | – | – | – | – | – | – | – | – | – | – | – | – | – | – | – | – | – | – | – | – | – | –
– | > 10 µM | > 10 µM | O=C(Nc1ccc(OC(F)(F)F)cc1)c1sccc1NCc1ccnc2ccccc12 | – | – | – | – | – | – | – | – | – | – | – | – | – | – | – | – | – | – | – | – | – | – | – | – | – | – | – | –

Continued, molecule first:

SMILES | IC50 (MAPK14 (human)) | IC50 (CDK2 (human)) | IC50 (EGFR (human)) | activity [1] | activity (PIK3CA (human)) | activity (CDK2 (human)) | activity [2] | activity [3] | activity [4] | activity [5] | activity [6] | activity (PIK3CB (Human)) | activity [7] | activity (MAPK14 (human)) | activity (ROCK2 (human)) | activity [8] | activity [9] | activity [10] | activity (PIK3CG (human)) | activity (PIK3CD (Human)) | activity [11] | activity [12] | activity [13] | activity [14] | activity [15] | activity [16] | activity [17] | activity [18] | activity (EGFR (human)) | activity [19] | activity [20]
COc1cc2c(Nc3ccc(NC(=O)c4ccccc4)cc3)ncnc2cc1OCCCN1CCOCC1 | – | – | – | 0% | 100% | 82% | 100% | 17% | 68% | 24% | 99% | 81% | 19% | 100% | 34% | 99% | 100% | 98% | 100% | 100% | 41% | 14% | 0% | 8% | 42% | 26% | 36% | 22% | 0% | 85% | 6%
Cc1ccc(C(=O)Nc2cccc(C(F)(F)F)c2)cc1Nc1nc(-c2cccnc2)nc2c1cnn2C | – | – | > 10 µM | – | – | – | – | – | – | – | – | – | – | – | – | – | – | – | – | – | – | – | – | – | – | – | – | – | – | – | –
Cc1ccc(NC(=O)c2cccc(C(C)(C)C#N)c2)cc1Nc1ccc2ncn(C)c(=O)c2c1 | – | – | – | 49% | 100% | 100% | 100% | 88% | 100% | 100% | 89% | 100% | 89% | 0% | 80% | 100% | 100% | 100% | 99% | 99% | 19% | 17% | 37% | 48% | 79% | 14% | 15% | 11% | 37% | 99% | 34%
